Experimental findings from patent publication US20050228007A1, “Isoquinoline derivatives and methods of use thereof” (priority 2004, published 2005) are described below.

Data set [1] has as its system streptozotocin (STZ) induced hyperglycemia. In words: Single high-dose streptozotocin model of diabetes. Type of data set: in vivo, mice. The note with it: 3 mg/kg i.p.; STZ 160 mg/kg; blood sugar 3 days later; STZ + vehicle 320 ± 13, basal 153 ± 21; 8l as mesylate salt. The protocol: PARS inhibitors and PARS deficiency are known to reduce the development of diabetes and the incidence of diabetic complications (Mabley et al., Br J. Pharmacol. 2001, 133(6):909-9; and Soriano et al., Nat Med. 2001, 7(1):108-13). […] Briefly, 160 mg/kg streptozotocin was injected to mice treated with vehicle or with illustrative Isoquinoline Derivatives intraperitoneally (3 mg/kg) and 3 days later blood sugar levels were determined using a blood glucose meter.

Data set [2] relates to thymocytes. The note with it: peroxynitrite induced, control 98%.
Description: In addition in vitro studies in isolated thymocytes, cells were exposed to peroxynitrite or hydrogen peroxide (toxic oxidant species) to induce cytotoxicity.
The target in data set [3] is T1, PARS (Mus musculus, UniProt P11103).
T1 construct: endogenous in cells; host or cells: RAW mouse macrophages
In words: PARS activation in peroxynitrite-treated cultured macrophages (whole-cell 3H-NAD+ assay). It counts as cell-based. The note with it: cultured murine macrophages. As to the method: Raw mouse macrophages were cultured in DMEM medium with high glucose and supplemented with 10% fetal bovine serum. Cells were used at 80% confluence in 12-well plates. Cells were pretreated with various concentrations (100 nM -1 µM) of an Isoquinoline Derivative for 10 min. Peroxynitrite, a prototypical oxidant which induces DNA single strand breakage, was used to induce PARS activation. Peroxynitrite was diluted in phosphate buffered saline (PBS) (pH 11.0) and added to the cells in a bolus of 50 μl. Cells were then incubated for 20 min. […] After the 20 min incubation, the cells were spun, the medium was aspirated and the cells were resuspended in 0.5 ml assay buffer (56 mM HEPES pH 7.5, 28 mM KCl, 28 mM NaCl, 2 mM MgCl2, 0.01% w/v digitonin and 0.125 μM NAD^+ and 0.5 μCi/ml ^3H-NAD^+). Following an incubation in assay buffer, (10 min at 37° C.), PARS activity was measured as follows: 200 μl ice cold 50% w/v TCA was added and the samples were incubated for 4 hours at 4° C. Samples were then spun (10 min @ 10,000 g) and pellets washed twice with ice cold 5% w/v TCA and solubilized overnight in 250 μl 2% w/v SDS/0.1 N NaOH at 37° C. The contents of the tubes were added to 6.5 ml ScintiSafe Plus scintillation liquid (Fisher Scientific) and radioactivity was determined using a liquid scintillation counter (Wallac, Gaithersburg, Md.).

The subject of data set [4] is TNF-alpha. As to the kind of experiment: LPS induced TNF production in mice. It counts as in vivo. Details: unit not given here. The note with it: LPS 10 mg/kg i.p., plasma at 90 minutes, vehicle 6994.0 ± 904.4, 8l as mesylate salt.
Data set [5] has as its system Balb/c mice. In words: LPS (endotoxin) induced mortality. Type of data set: in vivo. The note with it: 3 mg/kg/day; 100 mg/kg LPS i.p.; over 24 h; untreated 50%.
The test system of data set [6] is CLP induced shock. In words: Cecal ligation and puncture (CLP) induced shock mortality. Type of data set: in vivo. Conditions: 3 mg/kg/day; over 24 h; untreated 100% death.
The test system of data set [7] is middle cerebral artery occlusion/reperfusion. As to the kind of experiment: Rat model of middle cerebral artery occlusion/reperfusion. Type of data set: in vivo. The note with it: 3 mg/kg/day in 3 divided i.p. doses; 2 h occlusion, 24 h reperfusion; vs vehicle-treated controls. The protocol: Occlusion lasted for 2 hours, followed by reperfusion for 24 hours. Infarct size was quantified with tetrazolium staining. […] There was an approximately 80% reduction in the degree of cortical necrosis and neuronal death in the animals administered with 8l (mesylate salt), when compared to vehicle-treated controls.

The test system of data set [8] is ischemic and reperfused gut. As to the kind of experiment: Mouse model of ischemic and reperfused gut.
Protocol: In order to substantiate the efficacy of the Isoquinoline Derivatives in ischemia-reperfusion conditions, the effect of an illustrative Isoquinoline Derivative in a mouse model of ischemic and reperfused gut was tested. […] Following the end of the reperfusion, gut permeability was measured with the FD4 method in evened gut sacks (Liaudet et al., Shock 2000, 14(2): 134-41).

Counter-ions that a name gives are not always drawn. Like-named read-outs stand apart in the source and are kept apart here.

T1 sequence (P11103 whole entry): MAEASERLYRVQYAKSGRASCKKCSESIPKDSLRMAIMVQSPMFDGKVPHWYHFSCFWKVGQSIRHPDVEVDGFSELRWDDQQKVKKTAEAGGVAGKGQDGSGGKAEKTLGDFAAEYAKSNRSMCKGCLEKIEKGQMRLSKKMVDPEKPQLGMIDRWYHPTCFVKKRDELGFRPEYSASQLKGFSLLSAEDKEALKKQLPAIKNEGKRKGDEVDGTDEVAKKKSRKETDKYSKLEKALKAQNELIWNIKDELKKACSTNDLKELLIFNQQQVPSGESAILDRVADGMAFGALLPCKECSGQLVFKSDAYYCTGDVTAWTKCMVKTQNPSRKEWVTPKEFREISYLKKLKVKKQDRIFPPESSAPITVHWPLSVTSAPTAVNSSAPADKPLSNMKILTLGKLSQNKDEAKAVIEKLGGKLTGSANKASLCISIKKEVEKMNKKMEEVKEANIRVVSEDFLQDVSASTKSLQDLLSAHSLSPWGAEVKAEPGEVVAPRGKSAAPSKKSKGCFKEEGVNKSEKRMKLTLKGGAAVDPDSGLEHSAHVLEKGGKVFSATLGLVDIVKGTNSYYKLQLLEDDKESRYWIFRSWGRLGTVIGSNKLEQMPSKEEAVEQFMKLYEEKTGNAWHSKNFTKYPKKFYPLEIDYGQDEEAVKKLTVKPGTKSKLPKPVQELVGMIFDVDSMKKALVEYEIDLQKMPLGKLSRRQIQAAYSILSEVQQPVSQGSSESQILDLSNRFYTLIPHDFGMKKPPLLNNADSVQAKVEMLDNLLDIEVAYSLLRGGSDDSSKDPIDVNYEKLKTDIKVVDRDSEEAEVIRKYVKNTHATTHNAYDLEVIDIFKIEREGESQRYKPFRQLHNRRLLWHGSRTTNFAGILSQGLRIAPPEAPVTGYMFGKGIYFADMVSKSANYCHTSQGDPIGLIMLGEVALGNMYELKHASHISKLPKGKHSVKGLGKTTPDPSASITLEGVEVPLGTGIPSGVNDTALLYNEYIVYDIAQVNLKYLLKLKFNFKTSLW

For `O=c1[nH]c2c(c3ccccc13)Cc1cc(S(=O)(=O)NCCCN3CCOCC3)ccc1-2` [Compound 8l, 9-[N-(3-[morpholino-4-yl]propyl)-aminosulphonyl]-5,6-dihydro-5-oxo-11H-indeno-[1,2c]isoquinoline], in data set [1], the Glucose turned out to be 244 ± 21 mg/dL. In addition, the Cytotoxicity in data set [2] (30 nM 8l (mesylate salt per title)) is 74%; in data set [2] (100 nM 8l (mesylate salt per title)), 39%; in data set [2] (300 nM 8l (mesylate salt per title)), 2%; in data set [2] (1 μM 8l (mesylate salt per title)), 0%; in data set [2] (3 μM 8l (mesylate salt per title)), 0%.
`O=c1[nH]c2c(c3ccccc13)Cc1cc(S(=O)(=O)NCCN3CCOCC3)ccc1-2` [Compound 8j, 9-[N-(2-[morpholino-4-yl]ethyl)-aminosulphonyl]-5,6-dihydro-5-oxo-11H-indeno[1,2-c]isoquinoline]: the “% PARS inhibition at 100 nM” value in data set [3] (100 nM) is recorded as 34%. The “% PARS inhibition at 300 nM” value in data set [3] (300 nM) is 76%. For the same compound, the TNF in data set [4] (0.1 mg/kg i.p. pretreatment) is recorded as 3831.6 ± 385.2; in data set [4] (1.0 mg/kg i.p. pretreatment) it was 5038.8 ± 377.1. In data set [1], the Glucose is 253 ± 24 mg/dL.
In general, inhibition refers to the percentage by which the read-out fell short of the control. Regarding `CCN(CC)CCN(CCN(CC)CC)S(=O)(=O)c1ccc2c(c1)=Cc1c3c(c(=O)[nH]c1=2)=CC=CC3` [Compound 8p, 9-[N,N-di-(2-[N,N-diethylamino]ethyl)-aminosulphonyl]-5,6-dihydro-5-oxo-1H-indeno-[1,2-c]isoquinoline], in data set [3] (100 nM), the inhibition at 0.1 µM was found to be 27%. In data set [3] (300 nM), this compound gave an inhibition at 0.3 µM of 45%. The TNF in data set [4] (0.1 mg/kg i.p. pretreatment) was found to be 4470.0 ± 184.4; in data set [4] (1.0 mg/kg i.p. pretreatment) it was 5090.8 ± 203.7. Also, the Glucose in data set [1] was determined as 264 ± 24 mg/dL.
As usually defined, the mortality is the percentage killed. Compound `O=c1[nH]c2c(c3ccccc13)Cc1cc(S(=O)(=O)NCCCN3CCOCC3)ccc1-2` [Compound 8l (mesylate salt), 9-[N-(3-[morpholino-4-yl]propyl)-aminosulphonyl]-5,6-dihydro-5-oxo-11H-indeno-[1,2c]isoquinoline] showed an endotoxin-induced mortality in data set [5] of 10%. Further, the “mortality (death) in CLP induced shock” value in data set [6] is given as 60%. In addition, in data set [7], the “reduction in the degree of cortical necrosis and neuronal death” value is recorded as “approximately 80%”. For the same compound, the “reduction of the increase in the permeability of the gut” value in data set [8] (3 mg/kg i.v. 10 min prior to reperfusion, 45 min occlusion, 1 h reperfusion, FD4 method) is “approximately 73%”. Moreover, in data set [8] (gut ischemia-reperfusion, over 12 hours, untreated 80%), the mortality is recorded as 15%.
